Test results reported in US20230151003A1, “COMPOUNDS AND METHODS OF USE” (Exelixis, Inc., priority 2020, published 2023).

The molecules below were run against T1, Mer (Homo sapiens, UniProt Q12866) (assay: Mer autophosphorylation ELISA in transient transfected 293A cells). Details: Table 3 Cellular Activities; MERTK-transfected 293A cells, phospho-Mer ELISA.
T1 construct: host or cells: 293A cells (Thermo Fisher #R70507)
T1 sequence (Q12866 21-999): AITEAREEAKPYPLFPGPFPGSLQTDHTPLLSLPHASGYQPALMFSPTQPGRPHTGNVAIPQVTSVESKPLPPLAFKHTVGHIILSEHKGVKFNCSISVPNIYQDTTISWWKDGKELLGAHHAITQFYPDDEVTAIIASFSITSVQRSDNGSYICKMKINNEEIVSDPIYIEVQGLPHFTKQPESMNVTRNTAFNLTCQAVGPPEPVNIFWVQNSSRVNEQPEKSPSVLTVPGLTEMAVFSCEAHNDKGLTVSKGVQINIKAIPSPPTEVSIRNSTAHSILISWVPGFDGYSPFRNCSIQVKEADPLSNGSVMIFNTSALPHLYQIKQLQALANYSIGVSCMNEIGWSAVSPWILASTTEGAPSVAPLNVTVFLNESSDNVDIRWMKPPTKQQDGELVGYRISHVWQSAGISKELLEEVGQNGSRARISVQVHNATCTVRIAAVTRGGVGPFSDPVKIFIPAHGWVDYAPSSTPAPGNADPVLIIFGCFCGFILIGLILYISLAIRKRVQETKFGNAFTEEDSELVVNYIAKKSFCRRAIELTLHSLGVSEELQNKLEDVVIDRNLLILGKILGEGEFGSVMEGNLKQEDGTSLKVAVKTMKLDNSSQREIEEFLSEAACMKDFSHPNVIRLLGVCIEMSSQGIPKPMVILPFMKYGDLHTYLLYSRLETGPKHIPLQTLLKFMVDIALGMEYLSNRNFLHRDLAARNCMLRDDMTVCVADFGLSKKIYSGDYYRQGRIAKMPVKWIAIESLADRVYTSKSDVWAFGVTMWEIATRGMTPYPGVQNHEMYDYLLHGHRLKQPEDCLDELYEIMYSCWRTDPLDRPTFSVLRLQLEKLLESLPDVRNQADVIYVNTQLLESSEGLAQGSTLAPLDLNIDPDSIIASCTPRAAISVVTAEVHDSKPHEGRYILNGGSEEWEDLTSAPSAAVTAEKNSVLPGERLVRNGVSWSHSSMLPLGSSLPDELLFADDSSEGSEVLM
Assay type: cell-based
Outline: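 Phospho-Mer quantified by ELISA in lysates of transiently MERTK-transfected 293A cells after 1 h exposure to an 8-point compound series, serum-free, 0.3% DMSO. Activity normalized between DMSO-treated (100%) and reference inhibitor-treated (0%) lysates; IC50 via 4-parameter nonlinear regression.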
For COc1cc2nccc(Oc3ccc(NC(=O)c4nccn(-c5ccc(F)cn5)c4=O)cc3F)c2nc1OC [Compound 246, N-[4-[(6,7Dimethoxy-1,5-naphthyridin-4-yl)oxy]-3-fluorophenyl]-4-(5-fluoropyridin-2-yl)-3-oxopyrazine-2-carboxamide], the IC50 was ≤ 100 nM.
For COc1cc2nccc(Oc3ccc(NC(=O)c4c(C)ncc(-c5cccnc5)c4O)cc3F)c2nc1OC [Compound 228, N-[4-[(6,7-Dimethoxy-1,5-naphthyridin-4-yl)oxy]-3-fluorophenyl]-4-hydroxy-2-methyl-5-pyridin-3-ylpyridine-3-carboxamide], the IC50 was ≤ 100 nM.
For COc1cc2nccc(Oc3ccc(NC(=O)c4c(C)nc(C)c(-c5ccc(F)cn5)c4O)cc3F)c2nc1OC [Compound 218, N-[4-[(6,7-Dimethoxy-1,5-naphthyridin-4-yl)oxy]-3-fluorophenyl]-5-(5-fluoropyridin-2-yl)-4-hydroxy-2,6-dimethylpyridine-3-carboxamide], the IC50 was ≤ 100 nM.
In the case of CCOc1ccn(-c2ccc(F)cn2)c(=O)c1C(=O)Nc1ccc(Oc2ccnc3cc(OC)c(OC)nc23)c(F)c1 [Compound 243, N-[4-[(6,7-dimethoxy-1,5-naphthyridin-4-yl)oxy]-3-fluorophenyl]-4-ethoxy-1-(5-fluoropyridin-2-yl)-2-oxopyridine-3-carboxamide], the IC50 is reported as ≤ 100 nM.
With COc1cc2nccc(Oc3ccc(NC(=O)c4cc(C(C)=O)c(C)n(-c5ccoc5)c4=O)cc3F)c2nc1OC [Compound 235, 5-Acetyl-N-[4-[(6,7-dimethoxy-1,5-naphthyridin-4-yl)oxy]-3-fluorophenyl]-1-(furan-3-yl)-6-methyl-2-oxopyridine-3-carboxamide] the IC50 was ≤ 100 nM.
In the case of COc1cc2nccc(Oc3ccc(NC(=O)c4c(C)cc(C)n(-c5ccc(F)cn5)c4=O)cc3)c2nc1OC [Compound 245, N-[4-[(6,7-Dimethoxy-1,5-naphthyridin-4-yl)oxy]phenyl]-1-(5-fluoropyridin-2-yl)-4,6-dimethyl-2-oxopyridine-3-carboxamide], the IC50 is reported as ≤ 100 nM.
In the case of COc1cnc2c(Oc3ccc(NC(=O)c4cc(C(C)=O)c(C)n(-c5ccoc5)c4=O)cc3F)ccnc2c1 [Compound 240, 5-Acetyl-N-[3-fluoro-4-[(7-methoxy-1,5-naphthyridin-4-yl)oxy]phenyl]-1-(furan-3-yl)-6-methyl-2-oxopyridine-3-carboxamide], the IC50 is reported as ≤ 100 nM.
With COc1cc2nccc(Oc3ccc(NC(=O)c4cnc(C)c(-c5cccs5)c4O)cc3)c2nc1OC [Compound 256, N-[4-[(6,7-Dimethoxy-1,5-naphthyridin-4-yl)oxy]phenyl]-4-hydroxy-6-methyl-5-thiophen-2-ylpyridine-3-carboxamide] the IC50 was ≤ 100 nM.
For COc1cc2nccc(Oc3ccc(NC(=O)c4cnc(C)c(-c5ccco5)c4O)cc3)c2nc1OC [Compound 255, N-[4-[(6,7-Dimethoxy-1,5-naphthyridin-4-yl)oxy]phenyl]-5-(furan-2-yl)-4-hydroxy-6-methylpyridine-3-carboxamide], the IC50 was ≤ 100 nM.
COCCOc1cc2nccc(Oc3ccc(NC(=O)c4c(C)n(C)c(C)c(-c5coc6ccccc56)c4=O)cc3F)c2nc1OC [Compound 264, 5-(1-Benzofuran-3-yl)-N-[3-fluoro-4-[[6-methoxy-7-(2-methoxyethoxy)-1,5-naphthyridin-4-yl]oxy]phenyl]-1,2,6-trimethyl-4-oxopyridine-3-carboxamide] was tested, and the IC50 was ≤ 100 nM.
CCc1c(C(=O)Nc2ccc(Oc3ccnc4cc(OC)c(OC)nc34)c(F)c2)c(=O)c(-c2ccco2)c(C)n1C [Compound 324, N-[4-[(6,7-Dimethoxy-1,5-naphthyridin-4-yl)oxy]-3-fluorophenyl]-2-ethyl-5-(furan-2-yl)-1,6-dimethyl-4-oxopyridine-3-carboxamide] was tested, and the IC50 was ≤ 100 nM.
CCOc1ccn(-c2ccc(F)cn2)c(=O)c1C(=O)Nc1ccc(Oc2ccnc3cc(OC)c(OC)nc23)cc1 [Compound 244, N-[4-[(6,7-Dimethoxy-1,5-naphthyridin-4-yl)oxy]phenyl]-4-ethoxy-1-(5-fluoropyridin-2-yl)-2-oxopyridine-3-carboxamide] was tested, and the IC50 was ≤ 100 nM.
In the case of COc1cc2nccc(Oc3ccc(NC(=O)c4ccc(C)n(-c5ccncc5)c4=O)cc3F)c2nc1OC [Compound 221, N-[4-[(6,7-Dimethoxy-1,5-naphthyridin-4-yl)oxy]-3-fluorophenyl]-6-methyl-2-oxo-1-pyridin-4-ylpyridine-3-carboxamid], the IC50 is reported as ≤ 100 nM.
COc1cc2nccc(Oc3ccc(NC(=O)c4c(C)n(C)c(C)c(-c5coc6ccccc56)c4=O)cc3F)c2nc1OC [Compound 262, 5-(1-Benzofuran-3-yl)-N-[4-[(6,7-dimethoxy-1,5-naphthyridin-4-yl)oxy]-3-fluorophenyl]-1,2,6-trimethyl-4-oxopyridine-3-carboxamide] was tested, and the IC50 was ≤ 100 nM.
For COc1cc2nccc(Oc3ccc(NC(=O)c4cccn(-c5ccncc5)c4=O)cc3F)c2nc1OC [Compound 229, N-[4-[(6,7-Dimethoxy-1,5-naphthyridin-4-yl)oxy]-3-fluorophenyl]-2-oxo-1-pyridin-4-ylpyridine-3-carboxamide], the IC50 was ≤ 100 nM.
In the case of COc1cc2nccc(Oc3ccc(NC(=O)c4c5n(c(C)c(-c6ccsc6)c4=O)CCOC5)cc3F)c2nc1OC [Compound 307, N-[4-[(6,7-Dimethoxy-1,5-naphthyridin-4-yl)oxy]-3-fluorophenyl]-6-methyl-8-oxo-7-thiophen-3-yl-3,4-dihydro-1H-pyrido[2,1-c][1,4]oxazine-9-carboxamide], the IC50 is reported as ≤ 100 nM.
With COCCOc1cc2nccc(Oc3ccc(NC(=O)c4c(C)n(C)c(C)c(-c5cc6ccccc6o5)c4=O)cc3F)c2nc1OC [Compound 263, 5-(1-Benzofuran-2-yl)-N-[3-fluoro-4-[[6-methoxy-7-(2-methoxyethoxy)-1,5-naphthyridin-4-yl]oxy]phenyl]-1,2,6-trimethyl-4-oxopyridine-3-carboxamide] the IC50 was 100 to 300 nM.
For COc1ccc2nccc(Oc3ccc(NC(=O)c4ccc(C)n(-c5ccc(F)cn5)c4=O)cc3F)c2c1 [Compound 49, N-[3-Fluoro-4-(6-methoxyquinolin-4-yl)oxyphenyl]-1-(5-fluoropyridin-2-yl)-6-methyl-2-oxopyridine-3-carboxamide], the IC50 was ≤ 100 nM.
COc1cnc2c(Oc3ccc(NC(=O)c4cnc(C)c(-c5cccs5)c4O)cc3)ccnc2c1 [Compound 257, 4-Hydroxy-N-[4-[(7-methoxy-1,5-naphthyridin-4-yl)oxy]phenyl]-6-methyl-5-thiophen-2-ylpyridine-3-carboxamide] was tested, and the IC50 was ≤ 100 nM.
In the case of COc1cnc2c(Oc3ccc(NC(=O)c4c(C)ncc(-c5ccccn5)c4O)cc3F)ccnc2c1 [Compound 70, N-[3-Fluoro-4-[(7-methoxy-1,5-naphthyridin-4-yl)oxy]phenyl]-4-hydroxy-2-methyl-5-pyridin-2-ylpyridine-3-carboxamide], the IC50 is reported as ≤ 100 nM.
For COc1cc2nccc(Oc3ccc(NC(=O)c4c5n(cc(-c6ccoc6)c4=O)CCOC5)cc3F)c2nc1OC [Compound 306, N-[4-[(6,7-Dimethoxy-1,5-naphthyridin-4-yl)oxy]-3-fluorophenyl]-7-(furan-3-yl)-8-oxo-3,4-dihydro-1H-pyrido[2,1-c][1,4]oxazine-9-carboxamide], the IC50 was ≤ 100 nM.
With COc1cc2nccc(Oc3ccc(NC(=O)c4c(C)n(C)c(C)c(-c5cc6ccccc6o5)c4=O)cc3F)c2nc1OC [Compound 261, 5-(1-Benzofuran-2-yl)-N-[4-[(6,7-dimethoxy-1,5-naphthyridin-4-yl)oxy]-3-fluorophenyl]-1,2,6-trimethyl-4-oxopyridine-3-carboxamide] the IC50 was 100 to 300 nM.
